Assay results taken from patent US20220087987A1, “A METHOD FOR TREATING SWI/SNF COMPLEX-DEFICIENT CANCERS COMPRISING GLUTATHIONE (GSH) METABOLIC PATHWAY INHIBITOR” (National Cancer Center, priority 2018, published 2022).

Assays:
[1] = tested on: ARID1A-WT and ARID1A-KO HCT116 cells; assay: Cell viability and colony formation assays; format: cell-based, human; conditions: cell viability 5 days, colony formation 10 days
Procedure: (§1) Cell viability was examined by measuring the cellular ATP level using the CellTiter-Glo Luminescent Cell Viability Assay (Promega). To measure cell viability after siRNA-mediated knockdown, cell lines were transfected with siRNAs (25 nM) using Lipofectamine RNAiMAX. After 48 hrs, cells were trypsinized and repeatedly transfected with siRNAs (25 nM) using Lipofectamine RNAiMAX. Cells were trypsinized after a further 48 hrs, counted, and reseeded at the specified density in 96-well plates. To measure cell viability after drug treatment, cells were trypsinized, counted, reseeded at the specified density in 96-well plates, and exposed to the indicated concentrations of drugs. Cell viability was measured using the CellTiter-Glo Luminescent Cell Viability Assay. Luminescence was measured using an Envision Multi-label plate reader (PerkinElmer).
The effect of drug treatment on cancer cell survival was evaluated in a colony formation assay. Cells were trypsinized, counted, reseeded at the specified density in 12-well plates, exposed to the indicated concentrations of drugs for 10-14 days, and fixed for 10 min in 50% (v/v) methanol containing 0.01% (w/v) crystal violet. Images were taken on LAS-3000 Imaging System (Fujifilm) and colonies were counted using Multi Gauge software.

ovarian PDCs = assay: Cell viability of ovarian patient-derived cancer cells; format: cell-based, human; conditions: 33 μM APR-246 or 100 μM BSO for 6 days
Procedure: Tumor samples and ascites were obtained from four ovarian cancer patients who underwent surgery or cell-free and concentrated ascites reinfusion therapy at the National Cancer Center Hospital or Kaname-cho Hospital (Tokyo, Japan) and were cultured in vitro. This protocol was approved by the Institutional Review Board of the National Cancer Center (Tokyo, Japan), and informed consent was obtained from the patients. To establish CCCO219 and CCC1216 PDCs, patient ascites (24 ml) were diluted in two volumes of PBS containing 2 mM EDTA, layered over 15 ml Ficoll-Paque PLUS (GE Healthcare), and centrifuged at 2200 rpm for 30 min. The interphase mononuclear layer was transferred to a fresh conical tube and washed twice with PBS containing 2 mM EDTA. […]
as §1, with “To measure cell viability after siRNA-mediated knockdown, cell lines were transfected with siRNAs (25 nM) using Lipofectamine RNAiMAX. After 48 hrs, cells were trypsinized and repeatedly transfected with siRNAs (25 nM) using Lipofectamine RNAiMAX.” left out

[2] = tested on: ARID1A-deficient TOV21G OCCC xenografts; assay: Mouse xenograft model, TOV21G; format: in vivo, mice; conditions: APR-246 50 mg/kg
Procedure: All mouse experiments were approved by the National Cancer Center (NCC) animal Ethical Committee. Cells were counted and re-suspended in a 1:1 mixture of 100 μl culture medium and 100 μl Matrigel (BD Biosciences) on ice. […] In the subcutaneous model, once the tumors were palpable (about 3-14 days after implantation), mice were randomly divided into two groups. […] In the doxycycline (Dox) treatment study, TOV21G-shNT cells and TOV21G-shGCLC cells were injected into the flanks of 6-week-old female BALB/c-nu/nu mice. […] In other experiments, TOV21G-shNT cells and TOV21G-shGCLC cells were treated with Dox (0.5 μg/ml) for 4 days and then injected into the flank of 6-week-old female BALB/c-nu/nu mice. […] Tumor growth was measured every several days using calipers. The volume of implanted tumors was calculated using the formula V=L×W2/2, where V is volume (mm^3), L is the largest diameter (mm), and W is the smallest diameter (mm). At the end of the experiment, mice were sacrificed in accordance with standard protocols.
GSH was detected using the GSH-Glo Assay (Promega). Tumor samples derived from xenografts were weighed and washed with PBS. The tumor samples were mixed with 50 μl of PBS and homogenized using a Mini Cordless Grinder (Funakoshi). PBS (950 μl) was added to homogenized tumor samples and centrifuged at 4° C. for 10 min at 15,000 rpm. Tumor extract and 2×GSH-Glo Reagent (25 μl of each) were mixed in white 96-well plates (Greiner) and incubated for 30 min at room temperature. Luciferin Detection Reagent (50 μl) was added and the samples were incubated for 15 min at room temperature. Luminescence was measured using an Envision Multi-label plate reader (PerkinElmer). GSH signal intensities per 1 mg of tumor sample were calculated.
Formalin-fixed, paraffin-embedded ovarian cancer clinical specimens and TOV21G xenografts were deparaffinized and representative whole 4-μm-thick sections were analyzed by IHC. […] The samples were removed from the freezer and equilibrated at −20° C. for approximately 15 minutes before sectioning. Tissue sections (6 μm thick) were placed on positively charged slides, dried, and fixed for 15 minutes at room temperature in 3% formaldehyde, followed by 5 minutes in methanol at −20° C. After fixation, representative sections were analyzed by IHC. […] All IHC staining was performed using a Dako autostainer Link48 (Dako).
First, membrane staining intensity (0, 1+, 2+, or 3+) was determined for each cell in a fixed field. The H-score was assigned using the following formula: [1×(% cells 1+)+2×(% cells 2+)+3×(% cells 3+)]. The final score, ranging from 0 to 300, gives more relative weight to higher-intensity membrane staining in a given tumor sample. The percentage of NOXA-, cleaved caspase-3-, cleaved PARP- and Ki67-positive cells (of the total number of cells) in each slide were counted.

[3] = tested on: diffuse-type gastric cancer PDCs; assay: Cell viability of diffuse-type gastric cancer PDCs; format: cell-based, human; conditions: treatment for 6 days
[4] = tested on: SWI/SNF complexes (SMARCA2, SMARCA4, SMARCB1, PBRM1) deficient cancer cells; assay: Cell viability of SWI/SNF complex-deficient cancer cell lines; format: cell-based, human; conditions: treatment for 6 days
Procedure: as §1

COCC1(CO)C(=O)C2CCN1CC2 (stereo not shown) [APR-246]
growth / survival of ARID1A-KO versus ARID1A-WT cells [1]: markedly decreased the survival of ARID1A-KO cells, but not ARID1A-WT cells | sensitivity of ARID1A-deficient versus ARID1A-positive PDCs (ovarian PDCs): more sensitive | GSH level in xenograft cells [2]: decreased | apoptotic markers NOXA, cleaved PARP, cleaved caspase-3 and proliferation marker Ki67 (IHC) [2]: markedly increased expression of the apoptotic markers NOXA, cleaved PARP, and cleaved caspase-3, and decreased expression of the cell proliferation marker Ki67 | oxidative stress marker 8-OHdG (IHC, H-score) [2]: increased the level of the oxidative stress marker 8-hydroxy-2′-deoxyguanosine (8-OHdG) markedly | tumor weight ([2]; BSO 750 mg/kg): reduced | body weight of mice ([2]; BSO 750 mg/kg once a day): did not cause significant loss of body weight | growth of xenografts (tumor volume) ([2]; intraperitoneally once daily 12-14 days, BSO 750 mg/kg): significantly suppressed the growth | IC50 values in ARID1A-deficient versus ARID1A-proficient PDCs [3]: markedly lower in ARID1A-deficient PDCs than in ARID1A-proficient PDCs | IC50 values in SWI/SNF complexes deficient versus wild-type cell lines [4]: markedly lower in these SWI/SNF complexes deficient cell lines than in wild-type cell lines
